Data as given in article PMC12362587, “Untargeted Diversity-Oriented Synthesis for the Discovery of New Antitumor Agents: An Integrated Approach of Inverse Virtual Screening, Bioinformatics, and Omics for Target Deconvolution” (Journal of Medicinal Chemistry, 2025).
“And” between values parts separate entries of the source, which are not always exact repeats. Identical values can stand only once.

Key:
[1] = MTT cell viability assay; assay type: cell-based, human; conditions: human, HaCaT keratinocyte cells (healthy control line), 24 h, compounds 0.01–40 μM, healthy control line, read-out: In Vitro Cytotoxicity, EC50 ± SD, HaCaT
Text: Initially, we phenotypically screened the synthesized compounds over a panel of tumor cell lines composed of HEPG2, A375, SHSY5Y, MCF7, and A549 derived from liver tumor, melanoma, neuroblastoma, breast cancer, and lung adenocarcinoma, respectively. We also considered the HaCaT cell line, coming from keratinocytes, as a healthy control line. As reference, cytotoxic chemotherapeutic agent 5-fluorouracil (5-FU) has been used. The results obtained performing the MTT (3-(4,5-dimethylthiazolyl-2)-2,5-diphenyltetrazolium bromide) assay are summarized in Table .
The human neuroblastoma SHSY5Y, melanoma A375, human breast cancer MCF7, nonsmall lung cancer A549, and human epidermal keratinocyte HaCaT cell lines were obtained from ATCC and were grown in Dulbecco’s Modified Eagle Medium (DMEM) supplemented with 10% (v/v) FBS, 2 mM L-glutamine, 100 U/mL penicillin, and 0.1 mg/mL streptomycin.
Cell viability was established by measuring mitochondrial metabolic activity with MTT. In brief, HEPG2 (1 × 10^4 cells/well), A375 (2 × 10^3 cells/well), HaCaT (3 × 10^3 cells/well), A549 (3 × 10^3 cells/well), SHSY5Y (2 × 10^4 cells/well), and MCF 7 (5 × 10^3 cells/well) were plated into 96-well plates for 24 h, then the compounds (0.01–40 μM) were added. After 24h, cells were replaced with a fresh medium containing 0.5 mg/mL MTT. Cells were incubated 1–3 h at 37 °C, then the medium was discarded, and formazan blue crystals in the cells were dissolved in 100 μL per well of a solution containing isopropanol/HCl 0.1 M. The absorbance was measured at 570 nm using a microplate reader (Multiskan Go, Thermo Scientific, Waltham, MA, USA). Cell viability was expressed as a percentage relative to the untreated cells cultured in medium with 0.1% DMSO and set to 100%, whereas 10% DMSO was used as positive control and set to 0% of viability. The EC50 values were calculated using GraphPad Prism 8.0 software by nonlinear regression of dose–response inhibition.

[2] = target: T1, protein-tyrosine kinase 6 (BRK) (Homo sapiens, UniProt Q13882); assay: BRK kinase assay (BPS Bioscience); assay type: biochemical; conditions: top concentration 30 μM, read-out: EC50 or IC50, protein-tyrosine kinase 6
T1 construct: purchased BPS Bioscience
Experimental: The assay was performed in a volume of 50 μL in a 96-well white plate. […] For activity measurement, the kinase (final concentration, 10 ng per reaction), PTK (Poly-Glu, Tyr 4:1; BRK substrate), ATP (final concentration, 500 μM) and compounds were incubated for 45 min at 30 °C. The compounds were added at different concentrations in the reaction buffer, starting from a final concentration of 30 μM. Buffer with the same amount of DMSO (1%) was used as a negative control. After the incubation time, ADP-Glo Kinase detection reagent was added for 45 min at room temperature. The generated luminescent signal was read in end point mode using a PerkinElmer AlphaScreen multimodal plate reader (PerkinElmer, Waltham, MA, USA). Experiments were performed in triplicate. IC50 values were calculated with GraphPad Prism 8.0 software by nonlinear dose–response inhibition regression.

[3] = target: T2, A1 Human Adenosine GPCR (Homo sapiens, UniProt P30542); assay: Binding Agonist Radioligand LeadHunter Assay; conditions: Eurofins, read-out: EC50 or IC50, A1 Human Adenosine GPCR, agonist radioligand
T2 construct: Eurofins (contract assay)
T2 sequence (P30542 1-326): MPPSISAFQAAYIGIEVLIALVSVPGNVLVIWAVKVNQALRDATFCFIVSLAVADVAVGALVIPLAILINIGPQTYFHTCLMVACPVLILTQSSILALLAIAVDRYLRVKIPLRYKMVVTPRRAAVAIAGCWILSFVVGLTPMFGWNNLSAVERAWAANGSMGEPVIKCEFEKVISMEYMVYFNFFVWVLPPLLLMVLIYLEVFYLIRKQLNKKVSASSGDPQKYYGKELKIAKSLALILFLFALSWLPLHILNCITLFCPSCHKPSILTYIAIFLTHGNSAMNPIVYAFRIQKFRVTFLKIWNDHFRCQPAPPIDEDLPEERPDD
Text: (§1) For displacement assays on G-protein coupled receptor 55 (GPR55), Vasopressin V2 receptor (V2R), Adenosine A1 receptor (A1AR), Fibroblast growth factor receptor 1 (FGFR1), Vascular endothelial growth factor receptor 2 (VEGFR2), Platelet-derived growth factor receptor beta (PDGFRB), Vascular endothelial growth factor receptor 1 (VEGFR1), Thromboxane Synthase (TXS) and Phosphodiesterase 10A (PDE10A), we commissioned the Eurofins company which employed its specific experimental methods, accessible at the link: https://www.eurofins.com/.

[4] = target: T3, V2 Human Vasopressin/Oxytocin GPCR (Homo sapiens, UniProt P30518); assay: Binding Agonist Radioligand LeadHunter Assay; conditions: Eurofins, read-out: EC50 or IC50, V2 Human Vasopressin/Oxytocin GPCR
T3 construct: Eurofins (contract assay)
Text: as §1

[5] = tested on: A375 cells; assay: Annexin V-FITC staining (apoptosis, flow cytometry); assay type: cell-based, human; conditions: 72 h
Experimental: Given the cytotoxic role of the compounds, an annexin V-FITC staining was performed to evaluate their effects on cell apoptosis.
Apoptosis of the cells was assessed using the Annexin V-FITC/PI reagents. A375 cells (3 × 10^4 cells/well) were seeded into 24-well plates and incubated for 72 h with compounds (5, 2.5, and 1.25 μM). After treatment, the collected cells were resuspended in a 100 μL assay buffer, then 5 μL Annexin V-FITC and 1 μL PI reagents were added following an incubation for 20 min at room temperature according to the manufacturer’s protocol (Dead Cell Apoptosis Kits with Annexin V for Flow Cytometry, Thermo Fisher Scientific). Cells were analyzed with a Becton Dickinson FACScan flow cytometer using the Cell Quest software, version 4 (Franklin Lakes, NJ, USA).

[6] = target: human CB2R (Homo sapiens, UniProt P34972); assay: Competition binding assay, displacement of [3H]-CP-55,940; parameters: host or cells: HEK-293 membranes; conditions: displacement of [3H]-CP-55,940, HEK-293 membranes; read-out: EC50 or IC50, cannabinoid receptor 2
Experimental: Binding assays at equilibrium were conducted as described in Di Micco et al., 2024. […]. All compounds were evaluated following the manufacturer’s protocol (PerkinElmer distributed by Revvity, Italy). […] The K i values were calculated using the Cheng-Prusoff equation, based on the IC50 values obtained through GraphPad PRISM software (version 10.2.2). The results are expressed as K i (μM), represented as mean ± SEM, and reflect the average of three independent experiments performed in duplicate.

Sequence of human CB2R (P34972 whole entry): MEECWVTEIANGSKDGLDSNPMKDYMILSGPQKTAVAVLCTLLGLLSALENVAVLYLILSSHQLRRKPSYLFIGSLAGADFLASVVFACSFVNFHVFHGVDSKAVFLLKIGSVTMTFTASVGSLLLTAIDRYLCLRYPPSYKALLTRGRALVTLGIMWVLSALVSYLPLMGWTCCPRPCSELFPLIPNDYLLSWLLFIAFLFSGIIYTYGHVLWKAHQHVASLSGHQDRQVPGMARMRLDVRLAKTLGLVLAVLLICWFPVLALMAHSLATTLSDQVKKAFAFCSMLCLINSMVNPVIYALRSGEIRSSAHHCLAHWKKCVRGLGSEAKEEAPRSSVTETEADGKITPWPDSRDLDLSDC
T3 sequence (P30518 whole entry): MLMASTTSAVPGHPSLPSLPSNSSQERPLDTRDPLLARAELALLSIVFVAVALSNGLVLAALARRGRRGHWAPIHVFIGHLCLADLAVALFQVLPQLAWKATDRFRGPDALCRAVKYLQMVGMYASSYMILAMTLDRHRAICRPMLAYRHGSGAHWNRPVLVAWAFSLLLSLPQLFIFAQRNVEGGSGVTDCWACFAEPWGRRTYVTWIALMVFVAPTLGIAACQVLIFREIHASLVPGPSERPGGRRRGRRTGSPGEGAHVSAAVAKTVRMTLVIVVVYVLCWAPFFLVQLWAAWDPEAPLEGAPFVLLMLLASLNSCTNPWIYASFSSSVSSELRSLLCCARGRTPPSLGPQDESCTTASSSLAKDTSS
T1 sequence (Q13882 whole entry): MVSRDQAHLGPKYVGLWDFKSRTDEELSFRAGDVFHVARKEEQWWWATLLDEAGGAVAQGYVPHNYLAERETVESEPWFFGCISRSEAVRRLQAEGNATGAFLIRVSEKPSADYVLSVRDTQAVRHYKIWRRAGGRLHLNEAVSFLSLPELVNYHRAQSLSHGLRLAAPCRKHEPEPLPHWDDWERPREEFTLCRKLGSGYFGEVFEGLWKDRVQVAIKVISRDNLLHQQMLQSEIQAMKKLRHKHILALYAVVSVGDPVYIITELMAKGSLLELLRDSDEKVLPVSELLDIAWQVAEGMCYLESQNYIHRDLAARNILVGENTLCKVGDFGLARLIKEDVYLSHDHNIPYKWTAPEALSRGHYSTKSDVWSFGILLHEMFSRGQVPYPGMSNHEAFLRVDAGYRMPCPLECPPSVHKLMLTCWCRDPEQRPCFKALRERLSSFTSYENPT

Row | Structure (SMILES) | EC50 at 24 h [1] | IC50 [2] | IC50 [3] | IC50 [4] | percentage of apoptotic cells ([5]; 1.25 μM) | percentage of apoptotic cells ([5]; 2.5 μM) | percentage of apoptotic cells ([5]; 5 μM) | IC50 [6]
1 | CC(C)C[C@H]1C(=O)N(Cc2ccc(C(F)(F)F)cc2)c2ccccc2C(=O)N1Cc1ccc(C(F)(F)F)cc1 [Compound 31, (S)-3-Isobutyl-1,4-bis(4-(trifluoromethyl)benzyl)-3,4-dihydro-1H-benzo[e][1,4]diazepine-2,5-dione] | > 40 µM | 19 ± 3.04 µM | ≥ 30 µM | ≥ 30 µM | 20.40 ± 4.56% | 81.10 ± 3.89% | 88.68 ± 2.10% | 9.7 ± 0.67 µM
2 | CC(C)C[C@@H](C(=O)OCc1ccccc1)N1Cc2ccccc2NC1=O [Compound 63, Benzyl (S)-4-Methyl-2-(2-oxo-1,4-dihydroquinazolin-3(2H)-yl)pentanoate] | 21.4 ± 0.78 µM | 29.2 ± 4.53 µM | ≥ 30 µM | ≥ 30 µM | 16.52 ± 3.24% | 58.90 ± 1.89% | 71.25 ± 0.11% | 6.9 µM and 6.91 µM
